{
  "source": "patent US8637688B2",
  "about": "“Topical dosage form comprising tri-substituted glycerol compounds” (priority 2006, dated 2014)",
  "origin": "cited, not measured here",
  "key": {"[1]": {"conditions": "6% solution, topical"}, "[2]": {"test_system": "cutaneous metastases from breast cancer", "conditions": "6% solution, topical, average dose rate 0.3 mg/cm^2 skin area"}},
  "data": [
    {"smiles": "CCCCCCCCCCCCCCCCOP(=O)([O-])OCC[N+](C)(C)C", "note": "[miltefosine, hexadecylphosphocholine]", "values": [
      {"measurement": "skin irritations (redness, itching, cauterization or the like) shortly upon administration", "setting": "[1]", "result": "significant skin irritations"},
      {"measurement": "patients treated who showed a beneficial response to the medicament", "setting": "[2]", "result": "about one third"}
    ]}
  ]
}
